According to PMC8632988, “Inhibition of SYK and cSrc kinases can protect bone and cartilage in preclinical models of osteoarthritis and rheumatoid arthritis” (Scientific Reports, 2021):
“And” between values parts separate entries of the source, which are not always exact repeats. Equal entries are not always repeated. Where two headings read alike, the source gives them in different places.

Key:
[1] = Tissue distribution after single oral administration in rats; format: in vivo, rat; conditions: for Bone concentration / Joint concentration / Kidney concentration / Liver concentration / concentration at 2 h / concentration at 8 h / concentration at 24 h / Muscle concentration / Prostate concentration / Spleen concentration: 100 mg/kg; for Kp / concentration at 2 h / concentration at 8 h / concentration at 24 h / Cmax / Tmax / AUC / AUC(0-inf) / half-life: rat; for concentration at 2 h / concentration at 8 h / concentration at 24 h: po; for AUC: read-out: AUC24; for half-life: read-out: Terminal t1/2 (converted)
Experimental: Experiments were performed at ChemPartner, Shanghai, China and approved by Institutional Ethics Committee (IEC) of ChemPartner. Male Wistar 10–12 weeks old rats with body weights of 185–220 g and male New Zealand rabbits with body weights of 2.0–2.3 kg were purchased from Shanghai SLAC Laboratory Animal Co., Ltd. MT-SYK-03 was administered to the three groups of rats (six rats per group) via oral gavage at 10 mL/kg concentration, and in rabbits 5 mL/kg concentration. Blood samples were kept on ice and centrifuged (2000 g, 4 ℃, 5 min) within 15 min post sampling.

[2] = biological target: SYK (Homo sapiens, UniProt P43405); experiment: Kinase selectivity profile assay; format: biochemical; parameters: purchased Reaction Biology Corporation; conditions: 500 nM; relative to DMSO; read-out: Residual enzymatic activity
Source text: Kinase activity data was expressed as the percent remaining kinase activity in test samples compared to vehicle (dimethyl sulfoxide) reactions based on the radioactivity of reaction products (see Table S2). Experiment was replicated twice.

[3] = bone, 100 mg/kg PO, male Wistar rats, Estimated Value
[4] = joint, 100 mg/kg PO, male Wistar rats, Estimated Value
[5] = kidney, 100 mg/kg PO, male Wistar rats, Estimated Value
[6] = liver, 100 mg/kg PO, male Wistar rats, Estimated Value
[7] = muscle, 100 mg/kg PO, male Wistar rats, Estimated Value
[8] = prostate, 100 mg/kg PO, male Wistar rats, Estimated Value
[9] = spleen, 100 mg/kg PO, male Wistar rats, Estimated Value

COc1cc(Nc2ncnc(Nc3cc4c(cn3)NC(=O)C(C)(C)O4)n2)cc(OC)c1OC [MT-SYK-03]
Bone concentration ([1]; bone, 100 mg/kg PO, male Wistar rats, 2 h, individual animals): 433 ng/mL and 576 ng/mL
Bone concentration ([1]; bone, 100 mg/kg PO, male Wistar rats, 8 h, individual animals): 1290 ng/mL and 681 ng/mL and 153 ng/mL
Bone concentration ([1]; bone, 100 mg/kg PO, male Wistar rats, 24 h, individual animals): 8.28 ng/mL and 19.9 ng/mL and 14.5 ng/mL
Joint concentration ([1]; joint, 100 mg/kg PO, male Wistar rats, 2 h, individual animals): 584 ng/mL and 631 ng/mL
Joint concentration ([1]; joint, 100 mg/kg PO, male Wistar rats, 8 h, individual animals): 1100 ng/mL and 673 ng/mL and 216 ng/mL
Joint concentration ([1]; joint, 100 mg/kg PO, male Wistar rats, 24 h, individual animals): 12.2 ng/mL and 20.4 ng/mL and 8.49 ng/mL
Kidney concentration ([1]; kidney, 100 mg/kg PO, male Wistar rats, 2 h, individual animals): 2880 ng/mL and 3160 ng/mL
Kidney concentration ([1]; kidney, 100 mg/kg PO, male Wistar rats, 8 h, individual animals): 1200 ng/mL and 375 ng/mL and 260 ng/mL
Kidney concentration ([1]; kidney, 100 mg/kg PO, male Wistar rats, 24 h, individual animals): 5.30 ng/mL and 72.0 ng/mL and 8.51 ng/mL
Liver concentration ([1]; liver, 100 mg/kg PO, male Wistar rats, 2 h, individual animals): 4700 ng/mL and 6610 ng/mL
Liver concentration ([1]; liver, 100 mg/kg PO, male Wistar rats, 8 h, individual animals): 1860 ng/mL and 635 ng/mL and 442 ng/mL
Liver concentration ([1]; liver, 100 mg/kg PO, male Wistar rats, 24 h, individual animals): 7.95 ng/mL and 115 ng/mL and 12.8 ng/mL
Kp ([1]; male, Wistar, bone and cartilage tissues, rats, single oral administration, read-out: Exposure in bone and cartilage tissues relative to plasma): 3
concentration at 2 h ([1]; male, Wistar, bone, bone, 100 mg/kg PO, male Wistar rats, 2 h, individual animals, read-out: Bone concentration): 327 ng/mL
concentration at 2 h ([1]; male, Wistar, bone, bone, 100 mg/kg PO, male Wistar rats, 2 h, mean, read-out: Bone concentration, Mean): 445 ng/mL
concentration at 8 h ([1]; male, Wistar, bone, bone, 100 mg/kg PO, male Wistar rats, 8 h, mean, read-out: Bone concentration, Mean): 708 ng/mL
concentration at 24 h ([1]; male, Wistar, bone, bone, 100 mg/kg PO, male Wistar rats, 24 h, mean, read-out: Bone concentration, Mean): 14.2 ng/mL
concentration at 2 h ([1]; male, Wistar, joint, joint, 100 mg/kg PO, male Wistar rats, 2 h, individual animals, read-out: Joint concentration): 470 ng/mL
concentration at 2 h ([1]; male, Wistar, joint, joint, 100 mg/kg PO, male Wistar rats, 2 h, mean, read-out: Joint concentration, Mean): 562 ng/mL
concentration at 8 h ([1]; male, Wistar, joint, joint, 100 mg/kg PO, male Wistar rats, 8 h, mean, read-out: Joint concentration, Mean): 663 ng/mL
concentration at 24 h ([1]; male, Wistar, joint, joint, 100 mg/kg PO, male Wistar rats, 24 h, mean, read-out: Joint concentration, Mean): 13.7 ng/mL
concentration at 2 h ([1]; male, Wistar, kidney, kidney, 100 mg/kg PO, male Wistar rats, 2 h, individual animals, read-out: Kidney concentration): 2350 ng/mL
concentration at 2 h ([1]; male, Wistar, kidney, kidney, 100 mg/kg PO, male Wistar rats, 2 h, mean, read-out: Kidney concentration, Mean): 2800 ng/mL
concentration at 8 h ([1]; male, Wistar, kidney, kidney, 100 mg/kg PO, male Wistar rats, 8 h, mean, read-out: Kidney concentration, Mean): 612 ng/mL
concentration at 24 h ([1]; male, Wistar, kidney, kidney, 100 mg/kg PO, male Wistar rats, 24 h, mean, read-out: Kidney concentration, Mean): 28.6 ng/mL
concentration at 2 h ([1]; male, Wistar, liver, liver, 100 mg/kg PO, male Wistar rats, 2 h, individual animals, read-out: Liver concentration): 4450 ng/mL
concentration at 2 h ([1]; male, Wistar, liver, liver, 100 mg/kg PO, male Wistar rats, 2 h, mean, read-out: Liver concentration, Mean): 5250 ng/mL
concentration at 8 h ([1]; male, Wistar, liver, liver, 100 mg/kg PO, male Wistar rats, 8 h, mean, read-out: Liver concentration, Mean): 979 ng/mL
concentration at 24 h ([1]; male, Wistar, liver, liver, 100 mg/kg PO, male Wistar rats, 24 h, mean, read-out: Liver concentration, Mean): 45.3 ng/mL
concentration at 2 h ([1]; male, Wistar, muscle, muscle, 100 mg/kg PO, male Wistar rats, 2 h, individual animals, read-out: Muscle concentration): 456 ng/mL
concentration at 2 h ([1]; male, Wistar, muscle, muscle, 100 mg/kg PO, male Wistar rats, 2 h, mean, read-out: Muscle concentration, Mean): 436 ng/mL
concentration at 8 h ([1]; male, Wistar, muscle, muscle, 100 mg/kg PO, male Wistar rats, 8 h, individual animals, read-out: Muscle concentration): 160 ng/mL
concentration at 8 h ([1]; male, Wistar, muscle, muscle, 100 mg/kg PO, male Wistar rats, 8 h, mean, read-out: Muscle concentration, Mean): 120 ng/mL
concentration at 24 h ([1]; male, Wistar, muscle, muscle, 100 mg/kg PO, male Wistar rats, 24 h, individual animals, read-out: Muscle concentration): 4.68 ng/mL
concentration at 24 h ([1]; male, Wistar, muscle, muscle, 100 mg/kg PO, male Wistar rats, 24 h, mean, read-out: Muscle concentration, Mean): 6.8 ng/mL
concentration at 2 h ([1]; male, Wistar, prostate, prostate, 100 mg/kg PO, male Wistar rats, 2 h, individual animals, read-out: Prostate concentration): 1070 ng/mL
concentration at 2 h ([1]; male, Wistar, prostate, prostate, 100 mg/kg PO, male Wistar rats, 2 h, mean, read-out: Prostate concentration, Mean): 1260 ng/mL
concentration at 8 h ([1]; male, Wistar, prostate, prostate, 100 mg/kg PO, male Wistar rats, 8 h, mean, read-out: Prostate concentration, Mean): 251 ng/mL
concentration at 24 h ([1]; male, Wistar, prostate, prostate, 100 mg/kg PO, male Wistar rats, 24 h, individual animals, read-out: Prostate concentration): 21.6 ng/mL
concentration at 24 h ([1]; male, Wistar, prostate, prostate, 100 mg/kg PO, male Wistar rats, 24 h, mean, read-out: Prostate concentration, Mean): 21.6 ng/mL
concentration at 2 h ([1]; male, Wistar, spleen, spleen, 100 mg/kg PO, male Wistar rats, 2 h, individual animals, read-out: Spleen concentration): 2060 ng/mL
concentration at 2 h ([1]; male, Wistar, spleen, spleen, 100 mg/kg PO, male Wistar rats, 2 h, mean, read-out: Spleen concentration, Mean): 1910 ng/mL
concentration at 8 h ([1]; male, Wistar, spleen, spleen, 100 mg/kg PO, male Wistar rats, 8 h, mean, read-out: Spleen concentration, Mean): 374 ng/mL
concentration at 24 h ([1]; male, Wistar, spleen, spleen, 100 mg/kg PO, male Wistar rats, 24 h, individual animals, read-out: Spleen concentration): 30.3 ng/mL
concentration at 24 h ([1]; male, Wistar, spleen, spleen, 100 mg/kg PO, male Wistar rats, 24 h, mean, read-out: Spleen concentration, Mean): 30.3 ng/mL
Muscle concentration ([1]; muscle, 100 mg/kg PO, male Wistar rats, 2 h, individual animals): 435 ng/mL and 416 ng/mL
Muscle concentration ([1]; muscle, 100 mg/kg PO, male Wistar rats, 8 h, individual animals): 107 ng/mL and 93.2 ng/mL
Muscle concentration ([1]; muscle, 100 mg/kg PO, male Wistar rats, 24 h, individual animals): 8.92 ng/mL and BQL
Prostate concentration ([1]; prostate, 100 mg/kg PO, male Wistar rats, 2 h, individual animals): 1200 ng/mL and 1500 ng/mL
Prostate concentration ([1]; prostate, 100 mg/kg PO, male Wistar rats, 8 h, individual animals): 500 ng/mL and 154 ng/mL and 98.0 ng/mL
Prostate concentration ([1]; prostate, 100 mg/kg PO, male Wistar rats, 24 h, individual animals): BQL
Cmax [1, 3]: 708 ng/mL
Tmax [1, 3]: 8 h
AUC [1, 3]: 9680 ng·h/mL
Kp ([1]; bone, 100 mg/kg PO, male Wistar rats, Estimated Value, read-out: AUC24/AUC24 (plasma)): 2.5
Cmax [1, 4]: 663 ng/mL
Tmax [1, 4]: 8 h
AUC [1, 4]: 9650 ng·h/mL
Kp ([1]; joint, 100 mg/kg PO, male Wistar rats, Estimated Value, read-out: AUC24/AUC24 (plasma)): 2.49
AUC(0-inf) [1, 5]: 18300 ng·h/mL
Cmax [1, 5]: 2800 ng/mL
Tmax [1, 5]: 2 h
AUC [1, 5]: 18100 ng·h/mL
Kp ([1]; kidney, 100 mg/kg PO, male Wistar rats, Estimated Value, read-out: AUC24/AUC24 (plasma)): 4.68
half-life [1, 5]: 3.38 h
AUC(0-inf) [1, 6]: 32400 ng·h/mL
Cmax [1, 6]: 5250 ng/mL
Tmax [1, 6]: 2 h
AUC [1, 6]: 32100 ng·h/mL
Kp ([1]; liver, 100 mg/kg PO, male Wistar rats, Estimated Value, read-out: AUC24/AUC24 (plasma)): 8.3
half-life [1, 6]: 3.28 h
AUC(0-inf) [1, 7]: 3150 ng·h/mL
Cmax [1, 7]: 436 ng/mL
Tmax [1, 7]: 2 h
AUC [1, 7]: 3120 ng·h/mL
Kp ([1]; muscle, 100 mg/kg PO, male Wistar rats, Estimated Value, read-out: AUC24/AUC24 (plasma)): 0.805
half-life [1, 7]: 3.7 h
AUC(0-inf) [1, 8]: 8080 ng·h/mL
Cmax [1, 8]: 1260 ng/mL
Tmax [1, 8]: 2 h
AUC [1, 8]: 7960 ng·h/mL
Kp ([1]; prostate, 100 mg/kg PO, male Wistar rats, Estimated Value, read-out: AUC24/AUC24 (plasma)): 2.05
half-life [1, 8]: 3.89 h
AUC(0-inf) [1, 9]: 12200 ng·h/mL
Cmax [1, 9]: 1910 ng/mL
Tmax [1, 9]: 2 h
AUC [1, 9]: 12000 ng·h/mL
Kp ([1]; spleen, 100 mg/kg PO, male Wistar rats, Estimated Value, read-out: AUC24/AUC24 (plasma)): 3.1
half-life [1, 9]: 3.81 h
Spleen concentration ([1]; spleen, 100 mg/kg PO, male Wistar rats, 2 h, individual animals): 1420 ng/mL and 2260 ng/mL
Spleen concentration ([1]; spleen, 100 mg/kg PO, male Wistar rats, 8 h, individual animals): 726 ng/mL and 129 ng/mL and 268 ng/mL
Spleen concentration ([1]; spleen, 100 mg/kg PO, male Wistar rats, 24 h, individual animals): BQL
remaining activity at 0.5 µM [2]: 57.4%
